Series [1] concerns the target T1, LecA (Pseudomonas aeruginosa, UniProt Q05097). Kind of series: Enzyme-Linked Lectin Assay (ELLA), biotinylated LecA binding to polymeric galactose. The method, then:
Enzyme-Linked Lectin Assay (ELLA) Experiments 96-well plates are covered with polymer presenting galactose (which is the monosaccharide that is bound by LecA). The lectin labelled with biotin is added in presence of competing glycomimetics. IC50 can be measured.
More particularly, ELLA experiments were conducted using 96-well microtitre plates (Nunc Maxisorb) coated with polymeric β-D-galactose (5 μg/mL; Lectinity Holding, Inc., Moscow) diluted in carbonate buffer, pH 9.6 (100 μL) for 1 h at 37° C. After blocking at 37° C. for 1 h with 100 μL per well of 3% (w/v) BSA in PBS, plates were incubated at 37° C. for 1 h with 100 μL of biotinylated LecA at 0.1 μg/mL in the presence of serial dilutions of inhibitors. After washing with T-PBS (PBS containing 0.05% Tween), 100 μL of streptavidinperoxidase conjugate (dilution 1:10000; Boehringer-Mannheim) was added and left for 1 h at 37° C. The color was developed using 100 μL per well of 0.05 M phosphate/citrate buffer containing O-phenylenediamine dihydrochloride (0.4 mg/mL) and urea hydrogen peroxide (0.4 mg/mL) (Sigma-Aldrich). The reaction was stopped by the addition of 50 μL of 30% H2SO4. Absorbance was read at 490 nm using a microtitre plate reader (Bio-Rad; model 680).

In series [2] the target is T1, LecA. The experiment in a line: biochemical. Format: binding. The method, then:
Isothermal Titration Microcalorimetry (ITC).
The method allows for a direct measurement of the affinity between the glycomimetics and the LecA lectin. The dissociation constant is measured.
More particularly, recombinant lyophilized LecA was dissolved in buffer (0.1 M TrisHCl, 6 μM CaCl2, pH 7.5) and degassed (see Supp. Info. for concentration details). Protein concentration was checked by measurement of optical density using a theoretical molar extinction coefficient of 28000. Carbohydrate ligands were dissolved directly into the same buffer, degassed, and placed in the injection syringe. ITC was performed with a VP-ITC MicroCalorimeter from MicroCal Incorporated. PA-IL was placed into the 1.4478-mL sample cell, at 25° C. Titration was performed with 10-μL injections of carbohydrate ligands every 300 s. Data were fitted with MicroCal Origin 7 software, according to standard procedures. Fitted data yielded the stoichiometry (n), the association constant (Ka) and the enthalpy of binding (ΔH).
Other thermodynamic parameters (i.e. changes in free energy, ΔG, and entropy, ΔS) were calculated from the equation: ΔG=ΔH TΔS=−RT Inka where T is the absolute temperature and R=8.314 J·mol^−1·K^−1. Two or three independent titrations were performed for each ligand tested.

The target in series [3] is T1, LecA. The experiment in a line: Inhibition of Hemagglutination (HIA), LecA-induced agglutination of rabbit erythrocytes. Format: cell-based. To be noted: LecA 6 μg/mL, 25° C. As to the method: Inhibition of Hemagglutination (IHA) (or Hemagglutination Inhibition Assays (HIA)).
The LecA lectin agglutinates red blood cells since they are covered by glycoconjugates. The glycomimetics inhibit this agglutination.
For each compound the minimum concentration able to perform inhibition has been evaluated. The method is not very quantitative but mimics natural system.
(§1) More particularly, hemagglutination inhibition assays were performed in U-shaped 96-well microtitre plates. Rabbit erythrocytes were bought from Biomerieux and used without further washing. The erythrocytes were diluted to a 4% solution in NaCl (150 mM). Lectin solutions of 2 mg/mL were prepared in Tris/HCl 20 mM, NaCl 100 mM and CaCl2 100 μM. The hemagglutination unit (HU) was first obtained by the addition of 25 μL of the 4% erythrocyte solution to 25 μL aliquots of sequential (two-fold) lectin dilutions. The mixture was incubated at 25° C. for 60 minutes. The HU was measured as the minimum lectin concentration required to […] hemagglutination. For the following lectin-inhibition assays, lectin concentrations of four times that of the hemagglutination unit were used, i.e. a concentration of 6 μg/mL for LecA. Subsequent assays were then carried out by the addition of 12.5 μL lectin solution (at the required concentration) to 25 μL of sequential dilutions of glycoclusters, monomer molecules and controls. These solutions were then incubated at 25° C. for 2 h then 12.5 μL of 4% erythrocyte solution was added followed by an additional incubation at 25° C. for 30 minutes. The minimum inhibitory concentration for each molecule was determined by simple eye detection.
Compounds 5, 10, 14, 19, 21, 23, 25, 27, 29 and 31 were evaluated towards LecA according to Method 1.

The subject of another series is P. aeruginosa. The experiment in a line: Mice model of lung infection, alveolar capillary barrier permeability (125I-albumin). Format: in vivo. The conditions noted are these: co-instillation into lungs with P. aeruginosa, 6 h after infection. The method, then: Mice were briefly anesthetized with inhaled sevoflurane. For each mouse, 50 l of a bacterial inoculum of 5×10^8 CFU/ml was instilled into the lungs through a gavage inserted into trachea via the oropharynx. The alveolar capillary barrier permeability was evaluated by measuring residual ^125I-albumin instilled intratracheally as an alveolar protein tracer in the lungs and its leakage and accumulation in the plasma aftert 6 h after infection. The intratracheal instillate was a mixture of 1 μCi of ^125I-labeled albumin and 5% bovine albumin together with the P. aeruginosa inoculate and different monosaccharides or glycocompounds. The total radioactivity in the instillate was measured. Fifty microliters of instillate was inoculated into the lungs of each anesthetized mouse. […] The blood was collected by carotid arterial puncture, and a sternotomy was performed to harvest and measure the radioactivity in the lungs, trachea, and stomach. The quantity of 125l-albumin that leaked into the circulation was calculated by multiplying the activity in a blood sample by the volume of blood.
Compound 14 has been compared with two monosaccharides: glucose and galactose, in animal models assays. […] For this, labelled albumin was […] was estimated. […]

The target of series [4] is T1, LecA. Kind of series: biochemical. Format: binding. The method, then: Surface Plasmon Resonance (SPR).
Equivalent method, but performed in miniaturized channel on a galactose-containing chips in a more sophisticated apparatus (Biacore 3000) that allows for a precise determination of the IC50.
More particularly, SPR inhibition experiments were performed on a Biacore 3000 instrument at 25° C. Measurements were carried out on 2 channels with 2 immobilised sugars: α-L-fucose (channel 1), α-D-galactose (channel 2). Immobilization of sugars was performed at 25° C. using running buffer (HBS) at 5 μL/min. Immobilization on each channel (CM5 Chip) was performed independently as follows. First, channel was activated by injecting a fresh mixture of EDC/NHS (35 μL, 420 s). Then, a solution of strepatavidin (100 μg/mL in Na acetate pH 5 buffer) was injected (50 μL, 600 s). Remaining reactive species were quenched by injecting ethanolamine (1M, 35 μL, 420 s). Finally a solution of the desired biotinylated-polyacrylamide-sugar (Lectinity, 200 μg/mL) was coated onto the surface (50 μL, 600 s) through streptavidin-biotin interaction. This procedure led to 804 RU (fucoside) and 796 RU (galactoside) of immobilized sugars on channel 1 and 2 respectively. Inhibition experiments were performed with the galactosylated channel 2 and plots represent subtracted data (channel 2-channel 1).
LecA was injected using running buffer consisting of HEPES 10 mM, NaCl 150 mM, CaCl2 10 mM, Tween P20 0.005%, pH 7.4. Inhibition studies consisted in the injection (150 μL, 10 μL/min, dissociation: 120 s) of incubated (>1 h, r.t.) mixtures of LecA (5 μM) and various concentrations of inhibitor (2-fold cascade dilutions). For each inhibition assay, LecA (5 μM) without inhibitor was injected to observe the full adhesion of the lectin onto the sugar-coated surface (0% inhibition). The CM5 chip was fully regenerated by successive injections of D-Galactose (2×30 μL, 100 mM in running buffer).
Binding was measured as RU over time after blank subtraction, and data were then evaluated using the BIAevaluation Software, version 4.1. For IC50 evaluation, the response (Req-fitted) was considered as the amount of lectin bound to the sugar surface at equilibrium in the presence of a defined concentration of inhibitor. Inhibition curves were obtained by plotting the percentage of inhibition against the inhibitor concentration (on a logarithmic scale) by using Origin 7.0 software (OriginLab Corp.) and IC50 values were extracted from sigmoidal fit of the inhibition curve.
This is another data set of the same source.

A further series relates to Rabbit erythrocytes. Kind of series: Hemolysis of red cells observed in the hemagglutination inhibition assay. Format: cell-based. The conditions noted are these: at the concentration used in the hemagglutination inhibition assay. The method, then:
as §1
The values given in table 1 are inhibiting concentrations of lectin-induced rec cells agglutination. Monocovalent glycoconjugate compound 14 and tetravalent glyconjugate compounds 21 and 23 are the most efficient.

T1 sequence (Q05097 whole entry): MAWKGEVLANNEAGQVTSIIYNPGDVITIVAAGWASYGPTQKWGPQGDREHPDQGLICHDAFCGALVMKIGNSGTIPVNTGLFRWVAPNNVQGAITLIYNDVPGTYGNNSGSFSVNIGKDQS

A word on the IC50: it is the point on the concentration scale where inhibition reaches its midpoint. What is called Kd is the equilibrium constant for the complex coming apart. A lower Kd goes with higher affinity. `O=C(Cn1cc(CO)nn1)Nc1ccc(O[C@@H]2O[C@H](CO)[C@H](O)[C@H](O)[C@H]2O)cc1` [Comp. 14, 4-[(1,2,3-Triazol-4-hydroxymethyl-1-yl)-acetamido]phenyl β-D-galactopyranoside]: the IC50 is 46 µM at LecA [1] and 2.6 µM against LecA [4]. At LecA [2], this compound yielded a Kd of 5.8 µM. On LecA [3], the “inhibiting concentrations of lectin-induced red cells agglutination (minimum inhibitory concentration)” value was determined as 250 µM. The “reduction of lung damages (alveolar barrier permeability) versus bacteria without sugar” value in the series on P. aeruginosa is on record as “approximately 50%”.

As to `CC(C)(C)c1cc2c(OCc3cn(CC(=O)Nc4ccc(OC5OC(CO)C(O)C(O)C5O)cc4)nn3)c(c1)Cc1cc(C(C)(C)C)cc(c1OCc1cn(CC(=O)Nc3ccc(OC4OC(CO)C(O)C(O)C4O)cc3)nn1)Cc1cc(C(C)(C)C)cc(c1OCc1cn(CC(=O)Nc3ccc(OC4OC(CO)C(O)C(O)C4O)cc3)nn1)Cc1cc(C(C)(C)C)cc(c1OCc1cn(CC(=O)Nc3ccc(OC4OC(CO)C(O)C(O)C4O)cc3)nn1)C2` (stereo not shown) [Comp. 31], at LecA [1] (read-out: IC50 for the inhibition of labelled-LecA binding to a galactosylated polymer (ELLA), biotinylated LecA 0.1 μg/mL, multi-well plate), the IC50 was 5 µM. Also, in the series with Rabbit erythrocytes, the “Hemolysis of red cells” value is listed as “Hemolysis of red cells is observed”.
